Test results as given in patent publication EP1226131B1, “ISOXAZOLECARBOXAMIDE DERIVATIVES” (RECORDATI INDUSTRIA CHIMICA E FARMACEUTICA S.p.a., priority 1999, dated 2001).

Tests used:
α1L adrenoceptor = assay: Functional antagonism of noradrenaline-induced contractions of rabbit aorta pretreated with chloroethylclonidine; format: biochemical; conditions: functional affinity, NA-induced contractions
Description: Adult male New Zealand rabbits were sacrificed by cervical dislocation. The aorta was removed, placed in Krebs-Henseleit buffer and dissected free of adhering tissue.
Each antagonist concentration was tested using 2-3 aortic rings from different rabbits.
Dose ratios (i.e., the ratio between the concentrations of noradrenaline required to produce half-maximal response in the presence and in the absence of the test antagonist) were calculated at each concentration of the compounds.

[1] = molecular target: T1, recombinant α1d-adrenoceptor (Homo sapiens, UniProt P25100); assay: Radioligand binding assay ([3H]prazosin) on cloned α1-adrenoceptor subtype, membranes of transfected cells
T1 sequence (P25100 1-572): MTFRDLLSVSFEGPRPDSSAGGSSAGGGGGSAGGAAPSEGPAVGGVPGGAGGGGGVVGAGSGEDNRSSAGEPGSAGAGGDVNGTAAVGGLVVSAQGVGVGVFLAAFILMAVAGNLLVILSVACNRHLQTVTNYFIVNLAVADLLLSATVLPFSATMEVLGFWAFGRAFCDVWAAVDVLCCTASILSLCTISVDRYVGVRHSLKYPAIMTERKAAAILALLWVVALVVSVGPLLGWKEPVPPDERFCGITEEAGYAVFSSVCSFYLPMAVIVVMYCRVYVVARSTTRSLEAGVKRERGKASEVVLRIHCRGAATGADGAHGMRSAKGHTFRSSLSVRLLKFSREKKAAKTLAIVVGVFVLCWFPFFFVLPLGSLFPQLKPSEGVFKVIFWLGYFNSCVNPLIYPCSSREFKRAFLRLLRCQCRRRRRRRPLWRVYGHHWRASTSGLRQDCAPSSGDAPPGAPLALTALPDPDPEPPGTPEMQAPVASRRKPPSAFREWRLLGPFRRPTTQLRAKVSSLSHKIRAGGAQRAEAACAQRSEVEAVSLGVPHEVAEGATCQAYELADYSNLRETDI
Description: (§2) Determination of affinity for cloned subtypes of the cloned α1-adrenoceptor was performed in membranes from cells transfected by electroporation with DNA expressing the genes encoding each α1-adrenoceptor subtype.
(§3) Non-specific binding was determined in the presence of 10 µM phentolamine. Incubation was stopped by addition of ice-cold Tris buffer and rapid filtration through 0.2%-polyethyleneimine pretreated Schleicher & Schuell GF52 filters. […] The homogenates were centrifuged at 40000 × g × 20 minutes and the membranes were resuspended in a small volume of ice-cold buffer containing Tris 5 mM and EDTA 5 mM (pH 7.4) and immediately frozen and stored at -70°C until use.
Data were expressed as mean of Ki.

[2] = test system: diastolic blood pressure (DBP); assay: Effect on diastolic blood pressure in anaesthetised dogs, i.v. administration; format: in vivo; conditions: dog, dose inducing a 25% decrease in diastolic blood pressure, one value spanning c3 and c4
Description: The experiments were performed according to the method of Imagawa J. et al., J Pharmacol. Methods 22, 103-111 (1989), with substantial modifications, as follows: adult male beagle dogs, weighing 8-10 kg, were anaesthetised with pentobarbital sodium (30 mg/kg i.v. and 2 mg/kg/h i.v.), intubated and spontaneously ventilated with room air. In order to monitor systemic blood pressure (BP), a polyethylene (PE) catheter was introduced into the aortic arch through the left femoral artery. A collateral of the left femoral vein was cannulated for infusion of anaesthetic, and the right femoral vein was cannulated for administration of the compounds. For intraarterial (i.a.) injection of noradrenaline (NA), a PE catheter was introduced into the lower portion of the abdominal aorta via the right external iliac artery. Through such procedure, NA was selectively distributed to the lower urinary tract. A paramedian vertical suprapubic incision extending from the base of the pelvis to the mid-abdominal region was made and the bladder and the prostate were exposed. The bladder was manually emptied with a syringe. […] The distal end of the right or left branch of the nerve was placed on a bipolar platinum electrode. Prostatic urethral pressure was monitored with a Mikro-tip catheter (5F) introduced into the bladder via the external urethral meatus, and withdrawn until the pressure transducer was positioned in the prostatic region of the urethra. A ligature was secured between the neck of the bladder and urethra to isolate the response of the latter and to avoid any interaction with the bladder. Another ligature was put around the Mikro-tip catheter at the external meatus, to secure the catheter itself. The hypogastric nerve stimulation was made with a train of rectangular pulses of 10-15 V, 10-30 Hz, width 5 msec, 8 sec duration.
After a stabilising period following the surgical procedure (30 minutes), in which arterial and prostatic urethral pressure were continuously monitored as basal values, i.a. administration of NA and stimulation of the hypogastric nerve were alternately made at intervals of 10 minutes.
The dose of NA and the parameter of hypogastric nerve stimulation chosen were such as to produce an increase of at least 100% in urethral pressure. The test compounds were administered i.v. in a cumulative manner with intervals of 15-20 min between administrations. Both i.a. injections of NA and stimulations of the hypogastric nerve were repeated 5 minutes after every dosing of test compound with intervals of about 5 minutes between two stimulations. […]

α1a adrenergic receptor = molecular target: T2, α1a adrenergic receptor (Homo sapiens, UniProt P35348); assay: Radioligand binding assay ([3H]prazosin) on cloned α1-adrenoceptor subtype, membranes of transfected cells
T2 sequence (P35348 1-466): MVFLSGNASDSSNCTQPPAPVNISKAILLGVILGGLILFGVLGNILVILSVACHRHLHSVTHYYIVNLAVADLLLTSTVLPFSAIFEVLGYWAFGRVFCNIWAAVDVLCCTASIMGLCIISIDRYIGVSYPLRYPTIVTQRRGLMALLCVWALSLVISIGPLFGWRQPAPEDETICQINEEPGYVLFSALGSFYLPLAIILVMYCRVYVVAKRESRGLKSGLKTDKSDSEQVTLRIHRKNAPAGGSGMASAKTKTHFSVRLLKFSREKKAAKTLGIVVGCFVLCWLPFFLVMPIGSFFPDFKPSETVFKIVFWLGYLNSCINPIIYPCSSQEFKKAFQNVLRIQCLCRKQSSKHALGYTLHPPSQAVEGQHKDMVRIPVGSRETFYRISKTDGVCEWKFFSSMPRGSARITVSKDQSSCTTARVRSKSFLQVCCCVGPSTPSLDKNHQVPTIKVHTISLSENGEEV
Description: as §2, §3
Data were expressed as mean of Ki.

[3] = test system: urethral contractions (UP) induced by noradrenaline (NA); assay: Urethral contractions induced by noradrenaline injection in anaesthetised dogs, i.v. administration; format: in vivo; conditions: dog
Description: (§1) The experiments were performed according to the method of Imagawa J. et al., J Pharmacol. Methods 22, 103-111 (1989), with substantial modifications, as follows: adult male beagle dogs, weighing 8-10 kg, were anaesthetised with pentobarbital sodium (30 mg/kg i.v. and 2 mg/kg/h i.v.), intubated and spontaneously ventilated with room air. In order to monitor systemic blood pressure (BP), a polyethylene (PE) catheter was introduced into the aortic arch through the left femoral artery. A collateral of the left femoral vein was cannulated for infusion of anaesthetic, and the right femoral vein was cannulated for administration of the compounds. For intraarterial (i.a.) injection of noradrenaline (NA), a PE catheter was introduced into the lower portion of the abdominal aorta via the right external iliac artery. Through such procedure, NA was selectively distributed to the lower urinary tract. A paramedian vertical suprapubic incision extending from the base of the pelvis to the mid-abdominal region was made and the bladder and the prostate were exposed. The bladder was manually emptied with a syringe. […] The distal end of the right or left branch of the nerve was placed on a bipolar platinum electrode. Prostatic urethral pressure was monitored with a Mikro-tip cathe[…]) introduced into the bladder via the external urethral meatus, and withdrawn until the pressure transducer was positioned in the prostatic region of the urethra. A ligature was secured between the neck of the bladder and urethra to isolate the response of the latter and to avoid any interaction with the bladder. Another ligature was put around the Mikro-tip catheter at the external meatus, to secure the catheter itself. […] Both i.a. injections of NA and stimulations of the hypogastric nerve were repeated 5 minutes after every dosing of test compound with intervals of about 5 minutes between two stimulations. In order to compare the effects of the administered compound, dose/response curves were constructed by computing, at the peak effect, the percent decrease in diastolic blood pressure and the percent inhibition of the increase in urethral pressure induced by both types of stimulation used.

[4] = test system: urethral contractions (UP) induced by hypogastric-nerve stimulation (HYP); assay: Urethral contractions induced by hypogastric-nerve stimulation in anaesthetised dogs, i.v. administration; format: in vivo; conditions: Canis lupus familiaris, iv, dog, dose inhibiting by 50% urethral contractions induced by hypogastric-nerve stimulation, read-out: UP ID50 HYP
Description: as §1, with “In order to compare the effects of the administered compound, dose/response curves were constructed by computing, at the peak effect, the percent decrease in diastolic blood pressure and the percent inhibition of the increase in urethral pressure induced by both types of stimulation used.” left out

Cc1onc(-c2ccccc2)c1C(=O)NCCCN1CCN(c2ccccc2OCC(F)(F)F)CC1 [Example 3, 5-Methyl-3-phenyl-N-{3-[4-[2-(2,2,2-trifluoroethoxy)-phenyl]-1-piperazinyl]-propyl}isoxazole-4-carboxamide]
pKb (α1L adrenoceptor): 8.47 | Ki [1]: 1.45 nM | DBP ED25 [2]: 514.7 µg/kg | Ki (α1a adrenergic receptor): 0.066 nM | ED50 ([3]; Canis lupus familiaris, iv, dose inhibiting by 50% urethral contractions induced by noradrenaline, read-out: UP ID50 NA): 1.3 µg/kg | R1 (DBP/NA) ([3]; ratio DBP ED25 / UP ID50 NA): 396 | ED50 [4]: 2.4 µg/kg
